Holding throughout (assay): KinomeScan profiling
Common to all, as to type: binding

The target of one assay is WEE1 (Homo sapiens, UniProt P30291). The settings on record: WEE1, 1 μM; read-out: % control. The procedure, abridged: (§1)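 At 1 μM in DMSO, compounds are run through a broad 468-member kinase panel. The luminescent read-out is normalised so that vehicle gives 100% and a positive control gives 0%; any kinase falling below 35% is treated as a target.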
A further assay has as its target T1, SIK2 (Homo sapiens, UniProt Q9H0K1).
T1 construct: purchased KinomeScan® (panel service)
To be noted: SIK2, 1 μM; read-out: % control. The procedure, abridged:
as §1

Another assay deals with CDK4-cyclinD3 (Homo sapiens, UniProt P11802). To be noted: CDK4-cyclinD3, 1 μM; read-out: % control. The procedure, abridged:
as §1

The next assay has as its target LCK (Homo sapiens, UniProt P06239). To be noted: read-out: % control. In short, it runs like this:
as §1

The target of another assay is T2, TSSK3 (Homo sapiens, UniProt Q96PN8).
T2 sequence (Q96PN8 1-268): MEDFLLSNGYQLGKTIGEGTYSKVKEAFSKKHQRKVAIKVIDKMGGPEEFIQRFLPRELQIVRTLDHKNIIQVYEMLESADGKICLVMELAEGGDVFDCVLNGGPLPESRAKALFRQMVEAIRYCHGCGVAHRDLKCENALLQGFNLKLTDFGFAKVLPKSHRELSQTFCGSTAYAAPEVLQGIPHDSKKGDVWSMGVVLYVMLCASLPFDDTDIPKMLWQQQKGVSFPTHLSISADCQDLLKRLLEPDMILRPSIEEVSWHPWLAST
The settings on record: TSSK3, 1 μM; read-out: % control. The procedure, abridged:
as §1

For the next assay, the target named is CAMK1 (Homo sapiens, UniProt Q14012). The settings on record: CAMK1, 1 μM; read-out: % control. In short, it runs like this: as §1
Chain of CAMK1 (Q14012 whole entry): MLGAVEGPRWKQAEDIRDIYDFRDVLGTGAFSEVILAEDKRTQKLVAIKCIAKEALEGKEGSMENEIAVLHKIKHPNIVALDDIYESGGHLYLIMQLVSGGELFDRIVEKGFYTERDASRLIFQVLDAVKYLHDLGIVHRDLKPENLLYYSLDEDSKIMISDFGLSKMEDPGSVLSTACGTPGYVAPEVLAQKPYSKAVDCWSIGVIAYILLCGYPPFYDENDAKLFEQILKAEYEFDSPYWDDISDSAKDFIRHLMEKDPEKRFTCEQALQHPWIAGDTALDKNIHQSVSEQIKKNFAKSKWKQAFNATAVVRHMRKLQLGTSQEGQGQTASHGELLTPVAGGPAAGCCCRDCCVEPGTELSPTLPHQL
The next assay addresses T3, MAP4K3 (Homo sapiens, UniProt Q8IVH8).
T3 sequence (Q8IVH8 1-894): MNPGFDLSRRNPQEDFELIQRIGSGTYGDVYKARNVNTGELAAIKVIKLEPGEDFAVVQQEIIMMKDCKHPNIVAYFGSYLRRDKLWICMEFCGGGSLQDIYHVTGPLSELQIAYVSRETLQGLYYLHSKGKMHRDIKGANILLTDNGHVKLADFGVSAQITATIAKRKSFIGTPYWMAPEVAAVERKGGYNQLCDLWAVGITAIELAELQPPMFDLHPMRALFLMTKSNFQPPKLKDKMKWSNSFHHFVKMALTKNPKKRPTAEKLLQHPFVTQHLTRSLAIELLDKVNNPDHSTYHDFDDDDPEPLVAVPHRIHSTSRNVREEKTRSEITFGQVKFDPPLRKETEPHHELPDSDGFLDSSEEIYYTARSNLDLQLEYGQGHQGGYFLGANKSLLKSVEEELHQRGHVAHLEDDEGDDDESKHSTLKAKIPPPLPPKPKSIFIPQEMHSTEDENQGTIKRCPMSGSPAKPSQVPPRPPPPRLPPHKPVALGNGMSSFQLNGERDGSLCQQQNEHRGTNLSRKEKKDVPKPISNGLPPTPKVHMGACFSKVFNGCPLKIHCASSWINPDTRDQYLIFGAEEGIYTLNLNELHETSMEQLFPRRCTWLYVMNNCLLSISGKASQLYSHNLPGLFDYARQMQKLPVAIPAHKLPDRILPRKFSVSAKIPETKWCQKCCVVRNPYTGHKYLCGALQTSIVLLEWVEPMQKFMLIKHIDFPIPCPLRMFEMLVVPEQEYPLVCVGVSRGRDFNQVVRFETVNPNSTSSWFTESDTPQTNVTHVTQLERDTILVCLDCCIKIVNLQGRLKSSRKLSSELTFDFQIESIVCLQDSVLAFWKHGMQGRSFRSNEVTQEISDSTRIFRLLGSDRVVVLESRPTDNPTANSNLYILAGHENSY
The settings on record: MAP4K3, 1 μM; read-out: % control. In short, it runs like this:
as §1

The next assay addresses FGFR2 (Homo sapiens, UniProt P21802). The settings on record: FGFR2, 1 μM; read-out: % control. In short, it runs like this:
as §1

The next assay addresses CSK (Homo sapiens, UniProt P41240). To be noted: read-out: % control. The procedure, abridged:
as §1

Another assay concerns the target T4, FLT3-autoinhibited (Homo sapiens, UniProt P36888).
T4 sequence (P36888 564-993 limits assumed): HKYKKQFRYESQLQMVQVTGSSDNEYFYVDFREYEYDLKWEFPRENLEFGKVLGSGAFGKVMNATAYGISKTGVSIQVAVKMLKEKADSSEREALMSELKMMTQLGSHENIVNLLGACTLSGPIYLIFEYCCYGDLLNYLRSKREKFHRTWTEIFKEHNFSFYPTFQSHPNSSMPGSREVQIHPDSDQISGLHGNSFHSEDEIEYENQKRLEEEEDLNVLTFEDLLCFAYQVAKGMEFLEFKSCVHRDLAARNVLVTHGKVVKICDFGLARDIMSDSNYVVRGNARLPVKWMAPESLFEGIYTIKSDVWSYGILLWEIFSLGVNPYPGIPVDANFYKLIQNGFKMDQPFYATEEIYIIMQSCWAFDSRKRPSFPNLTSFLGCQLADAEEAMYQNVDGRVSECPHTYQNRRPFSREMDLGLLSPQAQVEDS
To be noted: read-out: % control. The procedure, abridged:
as §1

Three compounds from patent US12275731B2, “Azaindole inhibitors of wild-type and mutant forms of LRRK2” (DANA-FARBER CANCER INSTITUTE, INC., priority 2018, dated 2025) can be followed below.

SMILES strings stand for the structures.

Chain of CDK4-cyclinD3 (P11802 whole entry): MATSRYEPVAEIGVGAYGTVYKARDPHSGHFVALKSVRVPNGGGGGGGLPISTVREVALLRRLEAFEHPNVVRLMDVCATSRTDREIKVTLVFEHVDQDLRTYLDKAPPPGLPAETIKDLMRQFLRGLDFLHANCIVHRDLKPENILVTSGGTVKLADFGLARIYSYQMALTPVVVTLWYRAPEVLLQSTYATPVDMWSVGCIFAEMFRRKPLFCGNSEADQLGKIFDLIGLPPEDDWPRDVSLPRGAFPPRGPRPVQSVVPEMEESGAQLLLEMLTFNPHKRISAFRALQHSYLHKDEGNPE
Chain of CDK4-cyclinD3 (P30281 whole entry partner): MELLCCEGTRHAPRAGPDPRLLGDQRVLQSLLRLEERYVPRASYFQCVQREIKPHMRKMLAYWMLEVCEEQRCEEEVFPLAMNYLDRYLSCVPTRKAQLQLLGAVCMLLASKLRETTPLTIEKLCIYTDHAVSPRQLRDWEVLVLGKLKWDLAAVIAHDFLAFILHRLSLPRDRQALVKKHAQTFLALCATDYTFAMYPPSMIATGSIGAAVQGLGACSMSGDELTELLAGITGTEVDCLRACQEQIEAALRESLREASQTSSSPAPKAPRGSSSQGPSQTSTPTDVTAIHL
T1 sequence (Q9H0K1 whole entry): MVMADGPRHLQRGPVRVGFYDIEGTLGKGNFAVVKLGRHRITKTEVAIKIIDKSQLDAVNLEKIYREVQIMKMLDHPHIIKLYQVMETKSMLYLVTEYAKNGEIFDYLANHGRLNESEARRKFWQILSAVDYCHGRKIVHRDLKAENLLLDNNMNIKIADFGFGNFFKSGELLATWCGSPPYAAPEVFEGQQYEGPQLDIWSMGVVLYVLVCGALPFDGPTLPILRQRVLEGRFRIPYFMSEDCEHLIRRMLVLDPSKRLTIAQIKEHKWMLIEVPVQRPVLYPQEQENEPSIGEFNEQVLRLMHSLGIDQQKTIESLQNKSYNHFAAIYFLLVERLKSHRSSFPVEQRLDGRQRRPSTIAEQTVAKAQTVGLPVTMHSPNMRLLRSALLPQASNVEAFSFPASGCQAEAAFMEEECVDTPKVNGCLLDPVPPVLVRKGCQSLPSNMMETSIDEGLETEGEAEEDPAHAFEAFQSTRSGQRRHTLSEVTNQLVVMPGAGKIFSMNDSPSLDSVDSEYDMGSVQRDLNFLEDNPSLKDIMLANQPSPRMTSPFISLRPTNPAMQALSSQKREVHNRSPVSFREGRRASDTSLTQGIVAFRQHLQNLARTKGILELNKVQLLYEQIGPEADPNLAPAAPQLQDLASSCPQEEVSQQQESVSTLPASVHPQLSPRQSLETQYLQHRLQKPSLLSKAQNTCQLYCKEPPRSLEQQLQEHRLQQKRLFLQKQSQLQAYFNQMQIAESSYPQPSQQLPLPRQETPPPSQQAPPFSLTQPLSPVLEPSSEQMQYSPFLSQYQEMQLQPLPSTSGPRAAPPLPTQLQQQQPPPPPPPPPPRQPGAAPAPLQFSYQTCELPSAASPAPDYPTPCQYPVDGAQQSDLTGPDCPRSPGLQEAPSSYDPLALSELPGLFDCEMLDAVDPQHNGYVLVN
Chain of LCK (P06239 whole entry): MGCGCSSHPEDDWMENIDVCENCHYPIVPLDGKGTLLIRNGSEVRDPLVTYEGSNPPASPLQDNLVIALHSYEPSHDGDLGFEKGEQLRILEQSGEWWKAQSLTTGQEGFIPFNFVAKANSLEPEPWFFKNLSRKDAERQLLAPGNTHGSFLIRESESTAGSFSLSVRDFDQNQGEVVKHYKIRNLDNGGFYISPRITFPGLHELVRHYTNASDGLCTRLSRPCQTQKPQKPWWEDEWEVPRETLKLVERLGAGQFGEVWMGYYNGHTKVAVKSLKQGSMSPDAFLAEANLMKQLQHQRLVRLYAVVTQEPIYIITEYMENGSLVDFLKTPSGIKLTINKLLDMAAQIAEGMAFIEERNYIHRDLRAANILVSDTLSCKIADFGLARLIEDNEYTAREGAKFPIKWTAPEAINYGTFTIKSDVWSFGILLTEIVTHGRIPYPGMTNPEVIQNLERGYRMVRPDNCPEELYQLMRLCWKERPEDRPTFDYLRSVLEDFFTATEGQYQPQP
Chain of CSK (P41240 whole entry): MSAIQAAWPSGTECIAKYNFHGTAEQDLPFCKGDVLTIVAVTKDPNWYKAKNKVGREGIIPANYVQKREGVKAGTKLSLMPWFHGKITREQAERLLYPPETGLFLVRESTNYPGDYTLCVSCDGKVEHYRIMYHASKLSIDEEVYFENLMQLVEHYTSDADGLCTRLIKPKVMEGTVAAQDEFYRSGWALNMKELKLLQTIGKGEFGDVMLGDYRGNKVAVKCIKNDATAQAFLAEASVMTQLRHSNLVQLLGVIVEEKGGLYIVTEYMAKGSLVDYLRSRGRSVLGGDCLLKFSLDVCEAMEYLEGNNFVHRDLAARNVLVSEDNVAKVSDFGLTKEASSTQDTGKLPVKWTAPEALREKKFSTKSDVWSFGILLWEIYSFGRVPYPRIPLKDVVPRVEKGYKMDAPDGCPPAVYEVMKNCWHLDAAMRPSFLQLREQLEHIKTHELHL
Chain of FGFR2 (P21802 22-821): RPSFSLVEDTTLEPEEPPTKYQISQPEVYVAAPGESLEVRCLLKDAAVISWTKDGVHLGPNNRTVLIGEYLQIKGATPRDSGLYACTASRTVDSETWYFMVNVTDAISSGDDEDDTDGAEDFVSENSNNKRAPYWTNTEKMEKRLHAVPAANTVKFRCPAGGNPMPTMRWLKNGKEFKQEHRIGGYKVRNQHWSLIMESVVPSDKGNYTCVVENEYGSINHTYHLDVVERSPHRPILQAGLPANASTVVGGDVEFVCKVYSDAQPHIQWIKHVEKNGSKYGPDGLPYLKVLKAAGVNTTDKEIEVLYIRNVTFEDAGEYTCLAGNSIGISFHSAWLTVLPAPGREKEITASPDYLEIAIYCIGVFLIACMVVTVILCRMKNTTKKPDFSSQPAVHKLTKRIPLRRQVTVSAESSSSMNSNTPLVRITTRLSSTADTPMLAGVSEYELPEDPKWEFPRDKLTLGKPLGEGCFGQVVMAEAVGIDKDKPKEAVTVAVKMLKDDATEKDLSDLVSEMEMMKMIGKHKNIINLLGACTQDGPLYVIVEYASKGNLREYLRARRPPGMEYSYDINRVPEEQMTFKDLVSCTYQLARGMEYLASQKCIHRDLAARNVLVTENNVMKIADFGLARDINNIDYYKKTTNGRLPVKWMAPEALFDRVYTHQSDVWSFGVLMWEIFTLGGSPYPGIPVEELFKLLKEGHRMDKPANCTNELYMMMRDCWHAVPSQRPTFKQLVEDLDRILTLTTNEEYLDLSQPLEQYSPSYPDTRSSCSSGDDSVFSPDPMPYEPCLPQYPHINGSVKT
Chain of WEE1 (P30291 whole entry): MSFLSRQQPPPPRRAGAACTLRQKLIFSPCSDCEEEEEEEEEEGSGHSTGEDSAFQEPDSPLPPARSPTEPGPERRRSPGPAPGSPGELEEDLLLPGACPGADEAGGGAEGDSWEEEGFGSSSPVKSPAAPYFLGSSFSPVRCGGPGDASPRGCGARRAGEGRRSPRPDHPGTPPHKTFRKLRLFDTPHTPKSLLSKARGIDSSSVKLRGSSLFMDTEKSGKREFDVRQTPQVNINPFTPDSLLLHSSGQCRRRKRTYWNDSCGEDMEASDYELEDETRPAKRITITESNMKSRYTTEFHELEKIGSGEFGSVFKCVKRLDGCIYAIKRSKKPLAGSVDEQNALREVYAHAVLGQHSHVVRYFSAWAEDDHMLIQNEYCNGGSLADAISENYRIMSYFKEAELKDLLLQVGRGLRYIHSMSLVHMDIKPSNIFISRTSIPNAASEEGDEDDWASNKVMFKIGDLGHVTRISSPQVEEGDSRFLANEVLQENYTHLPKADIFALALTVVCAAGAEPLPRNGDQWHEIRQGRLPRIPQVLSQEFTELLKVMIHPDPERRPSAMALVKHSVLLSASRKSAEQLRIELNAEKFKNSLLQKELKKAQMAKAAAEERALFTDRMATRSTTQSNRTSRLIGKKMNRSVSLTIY

In the case of `CNc1c(-c2cnn([C@H]3CCN(C(C)=O)C[C@@H]3F)c2)cnc2[nH]cc(Cl)c12` [Compound 77, 1-((3S,4S)-4-(4-(3-chloro-4-(methylamino)-1H-pyrrolo[2,3-b]pyridin-5-yl)-1H-pyrazol-1-yl)-3-fluoropiperidin-1-yl)ethan-1-one], the remaining binding at 1 µM worked out at 97% at WEE1; 100% at SIK2; 98% at CDK4-cyclinD3; 96% at LCK; 65% on TSSK3; 84% at CAMK1. Also, the remaining binding at 1 µM at MAP4K3 amounted to 94%; at FGFR2 it was 72%; at CSK it was 22%; on FLT3-autoinhibited, 53%.

As for `CNc1c(-c2ccc(C(=O)N3CCC(N4CCOCC4)CC3)cc2)cnc2[nH]cc(Cl)c12` [Compound 96, (4-(3-chloro-4-(methylamino)-1H-pyrrolo[2,3-b]pyridin-5-yl)phenyl)(4-morpholinopiperidin-1-yl)methanone], the remaining binding at 1 µM at WEE1 amounted to 88%; at SIK2 it was 85%; on CDK4-cyclinD3 it was 100%; on LCK, 100%; on TSSK3 it was 45%; at CAMK1, 87%. Further, the remaining binding at 1 µM at MAP4K3 was 83%; on FGFR2, 94%; at CSK it was 44%; on FLT3-autoinhibited it was 93%.

With `O=C(c1ccc(-c2cnc3[nH]cc(Cl)c3c2NC2CCCC2)cc1)N1CCC(N2CCOCC2)CC1` [Compound 101, (4-(3-chloro-4-(cyclopentylamino)-1H-pyrrolo[2,3-b]pyridin-5-yl)phenyl)(4-morpholinopiperidin-1-yl)methanone], the remaining binding at 1 µM was 100% at WEE1; 84% on SIK2; 99% on CDK4-cyclinD3; 100% on LCK; 98% on TSSK3; 98% at CAMK1. Further, the remaining binding at 1 µM was determined as 74% at MAP4K3, 54% on FGFR2, 100% on CSK and 62% at FLT3-autoinhibited.
